Like-named read-outs stand apart in the source and are kept apart here.
Tests used:
[1] = molecular target: EGFR L858R/T790M (Homo sapiens, UniProt P00533, L858R/T790M); test: HTRF-based EGFR biochemical assay (L858R/T790M); settings: 100 μM ATP, enzyme 0.02 nM
Procedure: (§1) EGFR biochemical activity measurements were carried out using the homogeneous time-resolved fluorescence (HTRF) assay (Cisbio). Inhibitors and DMSO normalizations were first dispensed to empty black low-volume 384-well plates (Corning) with D300 digital liquid dispenser (HP). All reactions were carried out at room temperature and solutions were added to plates with a Multidrop Combi Reagent Dispenser (ThermoFisher). The reaction mixture (10 μL final volume) contained 1 μM tyrosine kinase peptide-biotin substrate and mutant EGFR in a reaction buffer (50 mM HEPES pH 7.0, 5 mM MgCl2, 1 mM MnCl2, 0.01% BSA, 2 mM TCEP, 0.1 mM NaVO4). […] Enzyme reaction solution (2× concentrations, 5 μL) was added to 384-well plates containing compounds and incubated for 30 mins. Enzyme reactions were initiated with the addition of 5 μL of ATP to a final concentration of 100 μM and reacted for 20 mins.

[2] = molecular target: EGFR L858R (Homo sapiens, UniProt P00533, L858R); test: HTRF-based EGFR biochemical assay (L858R); settings: 100 μM ATP, enzyme 0.1 nM
Chain of EGFR L858R (P00533 25-1210 L858R): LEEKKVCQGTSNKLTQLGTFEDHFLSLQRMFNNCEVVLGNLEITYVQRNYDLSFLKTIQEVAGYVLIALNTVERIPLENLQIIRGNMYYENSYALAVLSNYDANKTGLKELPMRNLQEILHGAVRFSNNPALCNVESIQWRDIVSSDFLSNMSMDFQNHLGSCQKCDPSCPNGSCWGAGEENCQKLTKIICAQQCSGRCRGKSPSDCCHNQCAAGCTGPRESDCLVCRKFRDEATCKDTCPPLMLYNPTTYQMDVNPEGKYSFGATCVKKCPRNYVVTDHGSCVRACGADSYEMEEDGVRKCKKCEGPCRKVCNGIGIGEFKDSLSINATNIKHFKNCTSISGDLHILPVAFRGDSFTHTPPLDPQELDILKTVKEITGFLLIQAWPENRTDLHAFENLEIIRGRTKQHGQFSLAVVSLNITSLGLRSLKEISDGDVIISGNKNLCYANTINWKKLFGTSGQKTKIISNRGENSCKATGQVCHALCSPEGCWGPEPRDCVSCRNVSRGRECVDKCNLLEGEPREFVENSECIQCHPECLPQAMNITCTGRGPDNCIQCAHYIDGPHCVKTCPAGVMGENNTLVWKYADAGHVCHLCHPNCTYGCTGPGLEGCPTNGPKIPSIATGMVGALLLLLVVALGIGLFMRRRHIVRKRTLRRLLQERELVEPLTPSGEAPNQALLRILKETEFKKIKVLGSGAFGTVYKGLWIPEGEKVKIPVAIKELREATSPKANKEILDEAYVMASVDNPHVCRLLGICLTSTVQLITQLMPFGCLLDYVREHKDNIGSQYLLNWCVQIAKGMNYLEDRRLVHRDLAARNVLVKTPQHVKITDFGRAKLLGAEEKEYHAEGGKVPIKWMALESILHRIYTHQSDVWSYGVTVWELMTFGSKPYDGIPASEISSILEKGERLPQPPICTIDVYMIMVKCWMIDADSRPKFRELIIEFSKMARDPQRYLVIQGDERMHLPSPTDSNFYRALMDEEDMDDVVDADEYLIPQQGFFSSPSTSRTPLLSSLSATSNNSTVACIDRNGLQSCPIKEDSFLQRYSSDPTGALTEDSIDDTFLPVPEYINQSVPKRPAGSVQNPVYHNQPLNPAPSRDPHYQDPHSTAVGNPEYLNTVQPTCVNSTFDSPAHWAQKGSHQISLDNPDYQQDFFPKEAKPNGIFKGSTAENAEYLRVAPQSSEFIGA
Procedure: as §1, with “20 mins. Reactions were quenched with the addition of 10 μL of phospho-tyrosine antibody-Europium(III) cryptate (1-to-180 volume ratio) and Streptavidin-XL665 (46.7 nM) in EDTA-containing detection buffer, then incubated at room temperature for 1 hour, and read with a PHERAstar plate reader (excitation=337 nm, emission=620 nm and 665 nm).” for “20 mins.”

[3] = molecular target: EGFR L858R/T790M mutant Ba/F3 cells (Homo sapiens, UniProt P00533, T790M/L858R, cells depend on it); test: Ba/F3 cell proliferation (Cell Titer Glo); type: cell-based, murine; settings: 72 hours
Chain of EGFR L858R/T790M mutant Ba/F3 cells (P00533 whole entry T790M/L858R): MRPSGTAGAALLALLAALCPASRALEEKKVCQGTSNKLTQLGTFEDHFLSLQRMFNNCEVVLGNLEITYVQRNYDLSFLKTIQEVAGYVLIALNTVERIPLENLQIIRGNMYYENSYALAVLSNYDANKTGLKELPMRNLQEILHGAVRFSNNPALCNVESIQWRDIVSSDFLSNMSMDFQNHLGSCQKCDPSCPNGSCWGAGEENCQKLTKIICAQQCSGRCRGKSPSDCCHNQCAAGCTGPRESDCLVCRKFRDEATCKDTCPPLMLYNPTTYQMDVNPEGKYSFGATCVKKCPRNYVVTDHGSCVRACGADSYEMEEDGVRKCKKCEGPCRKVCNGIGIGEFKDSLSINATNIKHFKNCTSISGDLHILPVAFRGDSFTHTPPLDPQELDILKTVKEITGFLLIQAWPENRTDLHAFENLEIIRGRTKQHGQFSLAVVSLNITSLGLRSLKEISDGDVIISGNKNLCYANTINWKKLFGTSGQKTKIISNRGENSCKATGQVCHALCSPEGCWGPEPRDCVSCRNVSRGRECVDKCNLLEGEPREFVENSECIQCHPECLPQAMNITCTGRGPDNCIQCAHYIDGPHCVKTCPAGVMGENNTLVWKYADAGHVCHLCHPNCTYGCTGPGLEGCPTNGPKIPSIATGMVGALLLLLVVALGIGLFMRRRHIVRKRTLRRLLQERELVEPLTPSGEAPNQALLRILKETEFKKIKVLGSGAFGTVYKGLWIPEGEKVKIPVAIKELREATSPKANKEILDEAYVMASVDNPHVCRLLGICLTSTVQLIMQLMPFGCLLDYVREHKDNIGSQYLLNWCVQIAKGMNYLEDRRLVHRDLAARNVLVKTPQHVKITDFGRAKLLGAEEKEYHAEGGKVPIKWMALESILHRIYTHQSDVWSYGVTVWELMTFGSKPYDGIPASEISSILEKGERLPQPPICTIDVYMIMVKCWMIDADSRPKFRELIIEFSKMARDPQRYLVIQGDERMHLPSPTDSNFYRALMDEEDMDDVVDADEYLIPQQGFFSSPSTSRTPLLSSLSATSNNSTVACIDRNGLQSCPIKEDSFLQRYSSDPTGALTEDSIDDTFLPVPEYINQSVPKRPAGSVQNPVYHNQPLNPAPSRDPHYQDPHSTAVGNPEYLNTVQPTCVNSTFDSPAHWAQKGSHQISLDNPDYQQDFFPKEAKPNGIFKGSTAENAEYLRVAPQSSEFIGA
From the text: All cell lines were maintained in RPMI 1640 (Cellgro; Mediatech Inc., Herndon, CA) supplemented with 10% FBS, 100 units/mL penicillin, 100 units/mL streptomycin. The EGFR I941R mutation was introduced via site directed mutagenesis using the Quick Change Site-Directed Mutagenesis kit (Stratagene; La Jolla, CA) according to the manufacturer's instructions. All constructs were confirmed by DNA sequencing. The constructs were shuttled into the retroviral vector JP1540 using the Cre-recombination system (Agilent Technologies, Santa Clara, CA). Ba/F3 cells were then infected with retrovirus per standard protocols, as described previously (Zhou, et al, Nature 2009). Stable clones were obtained by selection in puromycin (2 μg/ml).
Growth and inhibition of growth was assessed by the Cell Titer Glo assay (Promega, Madison, WI) and was performed according to the manufacturer's instructions. The Cell Titer Glo assay is a luminescence-based method used to determine the number of viable cells based on quantitation of the ATP present, which is directly proportional to the amount of metabolically active cells present. […] All experimental points were set up in triplicates in 384-well plates and all experiments were repeated at least three times. […] The curves were fitted using a non-linear regression model with a sigmoidal dose response.

[4] = in combination with 1 μg/ml cetuximab, read-out: Cell IC50 BaF3 L858R/T790M compound + cetuximab
[5] = single agent, read-out: Cell IC50 EGFR BaF3 L858R/T790M

Chain of EGFR L858R/T790M (P00533 25-1210 T790M/L858R): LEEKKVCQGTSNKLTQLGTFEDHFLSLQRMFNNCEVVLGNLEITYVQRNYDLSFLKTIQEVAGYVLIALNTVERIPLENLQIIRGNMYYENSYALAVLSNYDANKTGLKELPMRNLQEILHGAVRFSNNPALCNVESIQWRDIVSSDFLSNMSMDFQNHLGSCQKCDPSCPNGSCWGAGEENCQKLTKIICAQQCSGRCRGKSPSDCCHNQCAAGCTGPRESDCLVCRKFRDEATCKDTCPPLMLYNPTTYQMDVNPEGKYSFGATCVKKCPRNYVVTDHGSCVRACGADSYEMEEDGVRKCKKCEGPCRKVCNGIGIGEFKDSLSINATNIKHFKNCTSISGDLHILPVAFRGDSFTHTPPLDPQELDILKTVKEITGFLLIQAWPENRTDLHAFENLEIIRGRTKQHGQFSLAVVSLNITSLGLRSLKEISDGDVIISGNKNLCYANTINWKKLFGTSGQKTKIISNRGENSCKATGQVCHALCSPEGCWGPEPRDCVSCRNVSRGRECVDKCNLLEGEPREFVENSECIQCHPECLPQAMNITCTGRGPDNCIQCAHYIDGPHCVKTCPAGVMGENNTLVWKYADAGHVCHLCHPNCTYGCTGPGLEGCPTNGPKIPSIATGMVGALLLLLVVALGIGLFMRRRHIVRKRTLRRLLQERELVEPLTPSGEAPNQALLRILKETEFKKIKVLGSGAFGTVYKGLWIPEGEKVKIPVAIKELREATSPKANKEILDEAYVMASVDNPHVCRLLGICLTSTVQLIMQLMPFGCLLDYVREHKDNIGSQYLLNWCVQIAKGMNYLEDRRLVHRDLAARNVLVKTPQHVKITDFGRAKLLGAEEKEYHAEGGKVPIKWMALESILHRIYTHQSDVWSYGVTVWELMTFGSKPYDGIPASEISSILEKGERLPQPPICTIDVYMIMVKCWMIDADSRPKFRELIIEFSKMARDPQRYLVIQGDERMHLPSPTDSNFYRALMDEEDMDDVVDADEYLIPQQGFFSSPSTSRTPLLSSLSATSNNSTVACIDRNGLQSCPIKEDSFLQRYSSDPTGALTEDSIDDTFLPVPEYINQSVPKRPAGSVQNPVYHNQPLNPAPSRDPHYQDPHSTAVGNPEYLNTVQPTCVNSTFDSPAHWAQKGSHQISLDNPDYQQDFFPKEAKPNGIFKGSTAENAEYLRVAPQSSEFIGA

Row | Structure (SMILES) | IC50 [1] [nM] | IC50 [2] [nM] | GI50 [3, 4] [nM] | GI50 [3, 5] [nM]
1 | CN1CCN(c2ccc(-c3cc4ncn(C(C(=O)Nc5nccs5)c5ccccc5)c(=O)c4cc3F)cc2)CC1 (stereo not shown) [Compound 021, 2-(6-Fluoro-7-(4-(4-methylpiperazin-1-yl)phenyl)-4-oxoquinazolin-3(4H)-yl)-2-phenyl-N-(thiazol-2-yl)acetamide] | 16 | 103 | 970 | 2900
2 | CN1CCC(c2ccc(-c3ccc4c(=O)n(C(C(=O)Nc5nccs5)c5ccccc5)cc(F)c4c3)cc2)CC1 (stereo not shown) [Compound 022, 2-(4-Fluoro-6-(4-(1-methylpiperidin-4-yl)phenyl)-1-oxoisoquinolin-2(1H)-yl)-2-phenyl-N-(thiazol-2-yl)acetamide] | 0.6 | 2 | 20 | 1260
3 | CN1CCN(c2ccc(-c3ccc4c(=O)n(C(C(=O)Nc5nccs5)c5ccccc5)cc(F)c4c3)cc2)CC1 (stereo not shown) [Compound 023, 2-(4-Fluoro-6-(4-(4-methylpiperazin-1-yl)phenyl)-1-oxoisoquinolin-2(1H)-yl)-2-phenyl-N-(thiazol-2-yl)-acetamide] | 3 | 7 | 110 | 2410
4 | CN1CCC(c2ccc(-c3ccc4ccn(C(C(=O)Nc5nccs5)c5cccc(F)c5)c(=O)c4c3)cc2)CC1 (stereo not shown) [Compound 024, 2-(3-Fluorophenyl)-2-(7-(4-(1-methylpiperidin-4-yl)phenyl)-1-oxoisoquinolin-2(1H)-yl)-N-(thiazol-2-yl)-acetamide] | 1 | 7 | 90 | 1770
5 | CN1CCC(c2ccc(-c3ccc4c(=O)n(C(C(=O)Nc5nccs5)c5cccc(F)c5)ccc4c3)cc2)CC1 (stereo not shown) [Compound 025, 2-(3-Fluorophenyl)-2-(6-(4-(1-methyl-piperidin-4-yl)phenyl)-1-oxo-isoquinolin-2(1H)-yl)-N-(thiazol-2-yl)-acetamide] | 3 | 5 | 20 | 900
6 | CN1CCC(c2ccc(-c3ccc4c(=O)n(C(C(=O)Nc5nccs5)c5ccccc5)ncc4c3)cc2)CC1 (stereo not shown) [Compound 026, 2-(6-(4-(1-Methylpiperidin-4-yl)-phenyl)-1-oxophthalazin-2(1H)-yl)-2-phenyl-N-(thiazol-2-yl)acetamide] | 10 | 67 | 560 | 1220
7 | CN1CCN(c2ccc(-c3ccc4c(=O)n(C(C(=O)Nc5nccs5)c5ccccc5)ncc4c3)cc2)CC1 (stereo not shown) [Compound 027, 2-(6-(4-(4-Methylpiperazin-1-yl)-phenyl)-1-oxophthalazin-2(1H)-yl)-2-phenyl-N-(thiazol-2-yl)acetamide] | 18 | 209 | 1700 | 3460
8 | CN1CCC(c2ccc(-c3ccc4c(=O)n(C(C(=O)Nc5nccs5)c5cccc(F)c5)cnc4c3)cc2)CC1 (stereo not shown) [Compound 028, 2-(3-Fluorophenyl)-2-(7-(4-(1-methyl-piperidin-4-yl)phenyl)-4-oxo-quinazolin-3(4H)-yl)-N-(thiazol-2-yl)-acetamide] | 7 | 21 | 88 | 1580
9 | CN1CCN(c2ccc(-c3ccc4c(=O)n(C(C(=O)Nc5nccs5)c5cccc(F)c5)cnc4c3)cc2)CC1 (stereo not shown) [Compound 029, 2-(3-Fluorophenyl)-2-(7-(4-(4-methyl-piperazin-1-yl)phenyl)-4-oxo-quinazolin-3(4H)-yl)-N-(thiazol-2-yl)-acetamide] | 18 | 91 | 560 | 3450
10 | CN1CCC(c2ccc(-c3ccc4ncn(C(C(=O)Nc5nccs5)c5cccc(F)c5)c(=O)c4c3)cc2)CC1 (stereo not shown) [Compound 030, 2-(3-Fluorophenyl)-2-(6-(4-(1-methyl-piperidin-4-yl)phenyl)-4-oxo-quinazolin-3(4H)-yl)-N-(thiazol-2-yl)-acetamide] | 1 | 7 | 4 | 800
11 | CN1CCN(c2ccc(-c3ccc4ncn(C(C(=O)Nc5nccs5)c5cccc(F)c5)c(=O)c4c3)cc2)CC1 (stereo not shown) [Compound 031, 2-(3-Fluorophenyl)-2-(6-(4-(4-methyl-piperazin-1-yl)phenyl)-4-oxo-quinazolin-3(4H)-yl)-N-(thiazol-2-yl)-acetamide] | 0.2 | 2 | 10 | 1350
12 | CN1CCC(c2ccc(-c3ccc4ncn(C(C(=O)Nc5ccccn5)c5cccc(F)c5)c(=O)c4c3)cc2)CC1 (stereo not shown) [Compound 032, 2-(3-Fluorophenyl)-2-(6-(4-(1-methyl-piperidin-4-yl)phenyl)-4-oxo-quinazolin-3(4H)-yl)-N-(pyridin-2-yl)-acetamide] | 0.4 | 4 | 21 | 1580
13 | CN1CCN(c2ccc(-c3ccc4ncn(C(C(=O)Nc5ccccn5)c5cccc(F)c5)c(=O)c4c3)cc2)CC1 (stereo not shown) [Compound 033, 2-(3-Fluorophenyl)-2-(6-(4-(4-methyl-piperazin-1-yl)phenyl)-4-oxo-quinazolin-3(4H)-yl)-N-(pyridin-2-yl)-acetamide] | 2 | 51 | 44 | 1550
14 | O=C(Nc1ccccn1)C(c1cccc(F)c1)n1cnc2ccc(Br)cc2c1=O (stereo not shown) [Compound 034, 2-(6-Bromo-4-oxoquinazolin-3(4H)-yl)-2-(3-fluorophenyl)-N-(pyridin-2-yl)acetamide] | 18 | > 1000 | 1800 | > 10000
15 | O=C(Nc1nccs1)C(c1ccccc1)n1cc(F)c2ccc(Br)cc2c1=O (stereo not shown) [Compound 035, 2-(7-Bromo-4-fluoro-1-oxo-isoquinolin-2(1H)-yl)-2-phenyl-N-(thiazol-2-yl)acetamide] | 11 | 101 | 350 | > 10000
16 | CN1CCC(c2ccc(-c3ccc4c(F)cn(C(C(=O)Nc5nccs5)c5ccccc5)c(=O)c4c3)cc2)CC1 (stereo not shown) [Compound 036, 2-(4-Fluoro-7-(4-(1-methylpiperidin-4-yl)phenyl)-1-oxoisoquinolin-2(1H)-yl)-2-phenyl-N-(thiazol-2-yl)acetamide] | 0.3 | 4 | 23 | 920
17 | CN1CCN(c2ccc(-c3ccc4c(F)cn(C(C(=O)Nc5nccs5)c5ccccc5)c(=O)c4c3)cc2)CC1 (stereo not shown) [Compound 037, 2-(4-Fluoro-7-(4-(4-methylpiperazin-1-yl)phenyl)-1-oxoisoquinolin-2(1H)-yl)-2-phenyl-N-(thiazol-2-yl)-acetamide] | 1 | 8 | 22 | 2650
18 | CN1CCC(c2ccc(-c3ccc4ncn(C(C(=O)Nc5ccccn5)c5ccccc5)c(=O)c4c3)cc2)CC1 (stereo not shown) [Compound 038, 2-(6-(4-(1-Methylpiperidin-4-yl)-phenyl)-4-oxaquinazolin-3(4H)-yl)-2-phenyl-N-(pyridin-2-yl)acetamide] | 2 | 9 | 57 | 1860
19 | CN1CCN(c2ccc(-c3ccc4ncn(C(C(=O)Nc5ccccn5)c5ccccc5)c(=O)c4c3)cc2)CC1 (stereo not shown) [Compound 039, 2-(6-(4-(4-Methylpiperazin-1-yl)-phenyl)-4-oxoquinazolin-3(4H)-yl)-2-phenyl-N-(pyridin-2-yl)acetamide] | 9 | 191 | 76 | 1780

— patent US12622909B2, “Allosteric EGFR inhibitors and methods of use thereof” (Dana-Farber Cancer Institute, Inc., priority 2019, dated 2026)
